Our source for the Kd and IC50 values is patent US20130079345A1, “[…] ACTIVE DISUBSTITUTED TRIAZINE DERIVATIVES” (BAYER INTELLECTUAL PROPERTY GMBH, priority 2010, published 2013).

Test [1] has as its target T1, CDK9/Cyclin T1 (Homo sapiens, UniProt P50750).
T1 construct: purchased Invitrogen
Kind of test: LanthaScreen Eu Kinase Binding Assay, CDK9/Cyclin T1. As to conditions: tracer 236, read-out: Affinity (Kd) CDK9/Cyclin T1. The method in brief: (§1)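 TR-FRET competition binding with Alexa Fluor 647 tracer and Eu-anti-GST antibody; e.g. CDK2/Cyclin A 15 nM with tracer 236 60 nM (working solutions). Kinase buffer: HEPES 20 mM pH 8.0, MgCl2 10 mM, DTT 1 mM, Brij-35 0.01%; 8-point 1:3 series, 1 h at room temperature; Kd from sigmoidal dose-response curves.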
A general note: Time-resolved FRET reads energy transfer from a long-lived donor to a nearby acceptor.

Test [2] addresses T2, CDK7/CyclinH/Mat1 (Homo sapiens, UniProt P50613).
T2 construct: purchased Carna Biosciences
As to the kind of experiment: LanthaScreen Eu Kinase Binding Assay, CDK7. Particulars: tracer 236, read-out: Affinity (Kd) CDK7. The procedure, abridged:
as §1

Test [3] concerns RNA Polymerase II Ser2 phosphorylation (cellular CDK9 activity) in HCT-116 cells. As to the kind of experiment: RNA-Polymerase II Ser2 cellular phosphorylation assay. It counts as cell-based. As to conditions: Homo sapiens, normalized with tubulin. Here is the method: HCT-116 cells (DSMZ, Braunschweig, Germany) were maintained in Mc Coy's cell culture medium+glutamine (PAN Biotech GmbH, Aidenbach, Germany) supplemented with 10% fetal calf serum (PAA Laboratories GmbH, Pasching, Austria) and grown at 37° C., 5% CO2. For the cellular phosphorylation assay, cells were seeded with 2×10^5 cells/well/1 ml in 24-well plates (Greiner Bio—One, Frickenhausen, Germany; catalog #662160). The compounds of general formula (I) summarized in Table 6 were diluted from a 10 mM DMSO stock solution 1:10 in a total volume of 15 μL DMSO. After overnight incubation at 37° C./5% CO2, 1.5 μL of a compound diluted in DMSO was added to each sample well. Wells with cells and 0.15% DMSO in culture medium were used as positive controls, wells without cells and 0.15% DMSO in culture medium were used as negative controls. The cells were incubated with the compounds for 72 h at 37° C./5% CO2. Before lysis, cells were washed with phosphate buffered saline. Phosphorylation of RNA Polymerase II Ser2 and tubulin levels for normalization were analyzed afterwards with the Multi-Array technology (Meso Scale Discovery, Gaithersburg, Md., USA), a combination of antibody coupled electrochemiluminescence detection and patterned arrays. Manufacturer's instructions were followed and all solutions were purchased from Meso Scale Discovery. In brief, cells were lysed by 30 min incubation in CLB1 lysis buffer (Zeptosens, Witterswil, Switzerland; 60 μL per well), and supernatants were cleared by centrifugation. For analysis of RNA Polymerase II Ser2-phosphorylation, lysates were diluted 1:50 with Meso Scale Lysis Buffer supplemented with phosphatase- and protease-inhibitors, and 25 µL of each sample was pipetted in a well of a MSD Multi-Array 96-Well Plate Sector® Imager High Bind Plate (Meso Scale Discovery; catalog #L15XB-3/L11XB-3), and incubated for 2 h at room temperature. […] Meso Scale Tris Wash Buffer supplemented with 3% w/v Meso Scale Blocker A were added per well, then plates were sealed and incubated 1 h with vigorous shaking. Plates were washed with 1× Tris Wash Buffer (10× Meso Scale Wash Buffer diluted 1:10 in destilled water), 25 μL of antibody solution was added (CTD7 3E10 antibody from Helmholtz Zentrum Munich, Germany, diluted 1:100 in Meso Scale Tris Wash Buffer supplemented with 1% w/v Meso Scale Blocker A), and plates were washed three times in 1× Tris Wash Buffer. 25 μL of MSD® SULFO-TAG™ Goat-Anti-Rat-Antibody (Meso Scale Discovery, catalog #R^32AH-1, diluted 1:125 in Tris Wash Buffer with 1% (w/v) blocker A) were added per well, plates were sealed and incubated with vigorous shaking for 1 h at room temperature. Finally, plates were washed three times with Tris Wash Buffer, 150 μl 2× Read Buffer (Meso Scale Discovery) were added per well and plates were analyzed immediately in a Sector Imager from Meso Scale Discovery. For determination of tubulin protein levels, samples were analyzed with the protocol for RNA Polymerase II Ser2-phosphorylation, with an anti-tubulin antibody (rabbit; BIODESIGN International, catalog #T59840R, diluted 1:100) and a MSD® SULFO-TAG™ […] (Meso Scale Discovery, catalog #R^32AH-1, diluted 1:125). RNA Polymerase II Ser2 phosphorylation was normalized with tubulin protein levels, and EC50 values were calculated with the software XLFit (IDBS, Guildford, UK) from 2-fold dilution series comprising 6 concentrations in duplicates.

pIC50, pKd: −log10 of the molar value. Where a name gives a salt, the structure may show the parent alone.

T2 sequence (P50613 whole entry): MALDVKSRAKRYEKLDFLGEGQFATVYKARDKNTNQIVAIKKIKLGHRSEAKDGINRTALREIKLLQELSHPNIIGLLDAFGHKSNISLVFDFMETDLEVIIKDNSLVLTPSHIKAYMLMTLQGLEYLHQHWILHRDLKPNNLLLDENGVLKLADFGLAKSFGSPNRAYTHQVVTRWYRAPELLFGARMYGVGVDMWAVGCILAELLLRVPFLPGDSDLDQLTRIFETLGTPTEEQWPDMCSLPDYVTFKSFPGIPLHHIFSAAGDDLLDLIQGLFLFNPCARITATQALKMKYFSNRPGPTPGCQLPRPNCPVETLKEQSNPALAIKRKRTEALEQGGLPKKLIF
T2 sequence (P51946 whole entry partner): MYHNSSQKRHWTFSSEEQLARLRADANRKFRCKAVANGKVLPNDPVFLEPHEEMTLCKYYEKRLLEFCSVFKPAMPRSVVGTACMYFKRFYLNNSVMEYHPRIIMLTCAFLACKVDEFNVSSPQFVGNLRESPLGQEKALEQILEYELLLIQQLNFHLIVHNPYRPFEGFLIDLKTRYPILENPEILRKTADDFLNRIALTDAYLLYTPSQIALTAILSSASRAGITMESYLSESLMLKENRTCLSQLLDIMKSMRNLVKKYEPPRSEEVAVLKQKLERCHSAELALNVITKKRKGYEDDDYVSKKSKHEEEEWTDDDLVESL
T2 sequence (P51948 whole entry partner): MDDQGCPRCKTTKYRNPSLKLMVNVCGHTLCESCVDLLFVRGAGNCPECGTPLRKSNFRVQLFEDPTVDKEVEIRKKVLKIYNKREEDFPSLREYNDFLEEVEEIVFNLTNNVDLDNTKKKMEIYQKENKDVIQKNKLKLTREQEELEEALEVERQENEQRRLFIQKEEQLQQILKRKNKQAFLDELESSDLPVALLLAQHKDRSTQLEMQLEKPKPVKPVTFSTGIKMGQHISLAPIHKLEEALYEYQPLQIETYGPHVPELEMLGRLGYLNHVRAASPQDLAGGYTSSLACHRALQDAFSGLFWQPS
T1 sequence (P50750 whole entry): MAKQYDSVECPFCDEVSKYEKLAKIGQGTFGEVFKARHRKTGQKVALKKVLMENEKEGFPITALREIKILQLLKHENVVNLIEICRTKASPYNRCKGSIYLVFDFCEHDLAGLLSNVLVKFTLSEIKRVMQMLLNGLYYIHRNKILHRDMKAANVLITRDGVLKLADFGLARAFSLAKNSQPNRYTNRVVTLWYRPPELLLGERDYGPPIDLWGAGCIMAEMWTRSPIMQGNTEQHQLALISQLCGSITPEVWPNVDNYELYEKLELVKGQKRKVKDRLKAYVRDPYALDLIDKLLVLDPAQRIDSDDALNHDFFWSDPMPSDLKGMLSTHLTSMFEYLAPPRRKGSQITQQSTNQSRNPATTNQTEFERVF
T1 sequence (O60563 whole entry partner): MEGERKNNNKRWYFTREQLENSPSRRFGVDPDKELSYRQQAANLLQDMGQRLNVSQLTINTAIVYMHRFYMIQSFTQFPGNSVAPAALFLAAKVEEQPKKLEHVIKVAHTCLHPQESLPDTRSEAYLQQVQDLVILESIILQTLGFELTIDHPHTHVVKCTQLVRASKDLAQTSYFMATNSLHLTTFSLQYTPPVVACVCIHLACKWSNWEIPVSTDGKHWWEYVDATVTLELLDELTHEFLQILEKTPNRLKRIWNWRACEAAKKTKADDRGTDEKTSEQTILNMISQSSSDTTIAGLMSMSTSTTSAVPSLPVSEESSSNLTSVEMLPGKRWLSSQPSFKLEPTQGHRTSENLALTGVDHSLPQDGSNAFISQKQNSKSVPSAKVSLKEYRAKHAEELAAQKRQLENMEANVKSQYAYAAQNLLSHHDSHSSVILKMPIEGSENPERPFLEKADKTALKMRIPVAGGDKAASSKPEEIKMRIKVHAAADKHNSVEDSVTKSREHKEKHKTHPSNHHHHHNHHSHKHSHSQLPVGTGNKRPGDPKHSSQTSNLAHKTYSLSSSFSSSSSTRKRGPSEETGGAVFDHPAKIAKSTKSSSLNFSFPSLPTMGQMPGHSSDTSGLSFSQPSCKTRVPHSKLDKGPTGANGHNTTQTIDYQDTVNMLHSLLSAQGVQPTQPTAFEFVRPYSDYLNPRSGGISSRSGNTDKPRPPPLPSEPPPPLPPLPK

As for `NS(=O)(=O)Cc1cccc(Nc2ncnc(-c3ccccc3OCc3ccccc3)n2)c1` [Compound B13, 3-[(4-(2-Benzyloxyphenyl)-1,3,5-triazin-2-yl)amino]benzenemethanesulfonamide], the pKd in test [1] was 8.30; in test [2] it was less than 5.00.
On to `COc1cc(Cl)ccc1-c1ncnc(Nc2cccc(CS(N)(=O)=O)c2)n1` [Compound B6, 3-[(4-(4-Chloro-2-methoxyphenyl)-1,3,5-triazin-2-yl)amino]benzenemethanesulfonamide], for which the values for the pKd in test [1] and in test [2] were 7.96 and less than 5.00, respectively. Also, the pIC50 (commonly −log10 of the IC50, conventionally taken in molar units) in test [3] was 4.82.
On the same counts, the results for `COc1ccc(F)cc1-c1ncnc(Nc2cccc(CS(N)(=O)=O)c2)n1` [Compound B3, 3-[(4-(5-Fluoro-2-methoxyphenyl)-1,3,5-triazin-2-yl)amino]benzenemethanesulfonamide] are 7.80, less than 5.00 and 5.02.
In the case of `NS(=O)(=O)Cc1cccc(Nc2ncnc(-c3ccccc3OCc3ccncc3)n2)c1` [Compound B16, 3-[(4-(2-((4-Pyridinyl)methoxy)phenyl)-1,3,5-triazin-2-yl)amino]benzenemethanesulfonamide], the pKd in test [1] is more than 8.30; in test [2] it was less than 5.00. Moreover, the negative logarithm of the IC50 (pIC50) in test [3] is 4.92.
For the compound `COc1cc(F)ccc1-c1ncnc(Nc2cccc(CS(N)(=O)=O)c2)n1` [B2″, 1-(3-{[4-(4-fluoro-2-methoxyphenyl)-1,3,5-triazin-2-yl]amino}phenyl)methanesulfonamide trifluoroacetic acid salt], the pKd in test [1] was 8.18. For the same compound, the pIC50 in test [3] is 5.44.
With `NS(=O)(=O)Cc1cccc(Nc2ncnc(-c3ccccc3OCc3ccccc3)n2)c1` [B13′, 3-[(4-(2-Benzyloxyphenyl)-1,3,5-triazin-2-yl)amino]benzenemethanesulfonamide trifluoroacetic acid salt], the pKd in test [1] was 8.26.
On to `CCOc1ccccc1-c1ncnc(Nc2cccc(CS(N)(=O)=O)c2)n1` [Compound B12, 3-[(4-(2-Ethoxyphenyl)-1,3,5-triazin-2-yl)amino]benzenemethanesulfonamide], for which the pKd in test [1] is 8.00; in test [2], less than 5.00. Also, the pIC50 in test [3] is 4.76.
For the compound `COc1ccccc1-c1ncnc(Nc2cccc(NS(C)(=O)=O)c2)n1` [Compound K1, N-[3-((4-(2-Methoxyphenyl)-1,3,5-triazin-2-yl)amino)phenyl]-methanesulfonamide], the pKd was 7.41 in test [1] and less than 4.52 in test [2].
For `COc1cc(F)ccc1-c1ncnc(Nc2cccc(CS(N)(=O)=O)c2)n1` [B2′, 1-(3-{[4-(4-fluoro-2-methoxyphenyl)-1,3,5-triazin-2-yl]amino}phenyl)methanesulfonamide hydrochloride], the pKd in test [1] is 8.25.
Turning to `CCCS(=O)(=O)Nc1cccc(Nc2ncnc(-c3ccccc3OC)n2)c1` [Compound L1, N-[3-((4-(2-Methoxyphenyl)-1,3,5-triazin-2-yl)amino)phenyl]-propanesulfonamide], the values for the pKd in test [1] and in test [2] were 7.34 and less than 4.52, respectively. Moreover, the pIC50 in test [3] is less than 4.52.
Turning to `COc1cc(F)ccc1-c1ncnc(Nc2cccc(CS(N)(=O)=O)c2)n1` [Compound B2, 3-[(4-(4-Fluoro-2-methoxyphenyl)-1,3,5-triazin-2-yl)amino]benzenemethanesulfonamide], the pKd in test [1] was 8.30; in test [2] it was less than 5.00.
Consider `COc1cnccc1-c1ncnc(Nc2cccc(CS(N)(=O)=O)c2)n1` [Compound B19, 3-[(4-(3-Methoxypyridin-4-yl)-1,3,5-triazin-2-yl)amino]benzenemethanesulfonamide], for which the results for the pKd in test [1] and in test [2] were 8.15 and less than 5.00, respectively. Also, the pIC50 in test [3] is 4.81.
In the case of `COc1ccccc1-c1ncnc(Nc2cccc(CS(N)(=O)=O)c2)n1` [B1′, 3-[(4-(2-Methoxyphenyl)-1,3,5-triazin-2-yl)amino]benzenemethanesulfonamide trifluoroacetic acid salt], the pKd in test [1] was 8.12. The negative logarithm of the IC50 (pIC50) in test [3] was 4.96.
Take `COc1ccccc1-c1ncnc(Nc2cccc(CS(N)(=O)=O)c2)n1` [Compound B1, 3-[(4-(2-Methoxyphenyl)-1,3,5-triazin-2-yl)amino]benzenemethanesulfonamide]: the values for the pKd in test [1] and in test [2] were 8.30 and less than 5.00, respectively.
Consider `COc1cc(F)ccc1-c1ncnc(Nc2cccc(CCS(N)(=O)=O)c2)n1` [Compound D2, 2-[3-((4-(4-Fluoro-2-methoxyphenyl)-1,3,5-triazin-2-yl)amino)phenyl]ethanesulfonamide], for which the pKd in test [1] was 8.02; in test [2] it was less than 5.00. The pIC50 in test [3] was 4.97.
Regarding `COc1ccccc1-c1ncnc(Nc2cccc(CCS(N)(=O)=O)c2)n1` [Compound D1, 2-[3-((4-(2-Methoxyphenyl)-1,3,5-triazin-2-yl)amino)phenyl]ethanesulfonamide], the pKd in test [1] is 7.48; in test [2], less than 5.00.
Take `COc1ccccc1-c1ncnc(Nc2ccccc2)n1` [Compound P1, 4-(2-Methoxyphenyl)-N-phenyl-1,3,5-triazine-2-amine]: the values for the pKd in test [1] and in test [2] were 6.90 and less than 4.52, respectively.
With `COc1ccccc1-c1ncnc(Nc2cccc(S(N)(=O)=O)c2)n1` [C1′, 3-[(4-(2-Methoxyphenyl)-1,3,5-triazin-2-yl)amino]benzenesulfonamide trifluoroacetic acid salt], the pKd was more than 8.30 in test [1] and less than 5.00 in test [2]. In addition, the pIC50 in test [3] is 5.54.
For the compound `NS(=O)(=O)Cc1cccc(Nc2ncnc(-c3ccccc3Oc3ccccc3)n2)c1` [Compound B14, 1-(3-{[4-(2-phenoxyphenyl)-1,3,5-triazin-2-yl]amino}phenyl)methanesulfonamide], the pKd in test [1] is 7.59; in test [2], less than 5.00. Also, in test [3], the pIC50 is 4.84.
For `COc1cccc(F)c1-c1ncnc(Nc2cccc(CS(N)(=O)=O)c2)n1` [Compound B4, 3-[(4-(6-Fluoro-2-methoxyphenyl)-1,3,5-triazin-2-yl)amino]benzenemethanesulfonamide], in that order: 7.27, less than 5.00 and 4.30.
As for `COc1ccccc1-c1ncnc(Nc2cccc([N+](=O)[O-])c2)n1` [Compound H1, 4-(2-Methoxyphenyl)-N-(3-nitrophenyl)-1,3,5-triazine-2-amine], the pKd in test [1] is 7.75; in test [2], less than 4.52.
